Non-standard residues stand in square brackets, D forms with d. Residues, ends and D or L forms follow the SMILES beside them. No end group written: not given here. sY = N[C@@H](Cc1ccc(OS(=O)(=O)O)cc1)C(=O)O

The test system of data set [1] is gp120 (BaL) binding to mAb F105. Nature of the data set: Surface plasmon resonance, peptide effect on gp120 binding to control mAb F105. The conditions noted are these: peptide at 166 μM; specificity control. The arrangement: species or system HIV-1. The protocol:
(§1) The interaction of the tyrosine-sulfated V2 peptide with the 412d-binding site was further characterized by surface plasmon resonance (SPR).
(§2) Surface plasmon resonance. Recombinant gp120 from HIV-1 BaL (at 100 nM) obtained from the NIH AIDS Reagent Program was pre-incubated with or without a 2-fold molar excess of two-domain sCD4 (at 200 nM) and passed over a Biacore CM5 sensor surface in the presence or absence of the indicated peptides (at 166 μM) for 2 min at 25 μl/min in HBS supplemented with 3 mM EDTA and 0.005% Tween-20 followed by a 2 min dissociation phase using a Biacore 3000 biosensor (Biacore, Inc.). Surfaces were regenerated after each cycle by a brief injection of 4.5M MgCl2.
(In general: SPR reads the build-up and loss of mass on a sensor chip optically.)

The test system of data set [2] is HIV-1 BaL virions captured by mAb 412d (CCR5-binding site at the base of V3). The experiment in a line: HIV-1 virion-capture assay with mAb 412d-armed immunomagnetic beads. The conditions noted are these: peptides at 50 μM; virions pre-treated with sCD4 5 μg/ml. The source says:
(§3) FIGS. 3A-3H are a series of graphs illustrating that a tyrosine-sulfated peptide containing the V2 α-helix binds to gp120, competes with an anti-CCR5-binding site antibody for HIV-1 virion binding, and blocks HIV-1 entry, infection and fusion. (A) Effect of tyrosine-sulfated V2-loop (pV2α-Tys) and CCR5 N-terminus (pCCR5-Tys) mimetic peptides on HIV-1 virion capture by mAb 412d, a sulfated mAb directed to the CCR5-binding site at the base of V3. Unsulfated homologous peptides (pV2α and pCCR5) were tested in parallel as controls. Infectious viral stocks from HIV-1 BaL were pre-treated with the peptides (each at 50 μM) and then incubated with immunomagnetic beads armed with mAb 412d; beads armed with mAb 2G12 (directed to a glycan-dependent epitope on the gp120 outer domain) were used in parallel as a control. Asterisks denote significant differences with the untreated control (p<0.05 by unpaired Student's t test). (B) Dose-dependent effect of peptides pV2α and pV2α-Tys on cell-free infection by HIV-1 BaL in primary CD4^+ T cells. […] (F) Binding of gp120 to immobilized peptide pV2α as assessed by surface plasmon resonance analysis. […] (H) Comparison between the experimentally determined V3 interaction of the tyrosine sulfated CDRH3 region of mAb 412d and the modeled V3 interaction of a tyrosine sulfated peptide derived from the central region of V2. […]

The subject of data set [3] is CD4-activated gp120 (BaL) binding to mAb 412d. The experiment in a line: Surface plasmon resonance, peptide effect on gp120 binding to immobilized mAb 412d. Also noted: species or system HIV-1. The conditions noted are these: peptide at 166 μM; gp120 BaL 100 nM with sCD4. Here is the method: as §1, §2
The test system of another data set is primary CD4+ T cells. Nature of the data set: Cell viability of primary CD4+ T cells by timed flow cytometry counting. The conditions noted are these: activated primary CD4+ T cells cultured 7 days. In kind it is cell-based, human. Here is the method:
FIG. 9 is a graph illustrating the effect of V2-derived peptides pV2α and pV2α-Tys on viability of primary CD4^+ T cells. Purified human peripheral blood CD4^+ T cells previously activated in vitro with phytohemagglutinin and IL-2 were treated with each peptide at the indicated concentrations and cultured for 7 days. Cell viability was measured by quantitative counting using timed flow cytometry on a FACSCanto II.
HIV-1 isolates, infection, entry and cell viability assays. Details about the HIV-1 isolates used in the this study, the infection assay, the entry assay and the cell viability assay have been reported previously (Auerbach et al., Proc Natl Acad Sci USA 109, 9569-9574, 2012).
In general terms: Flow cytometry measures light scatter and fluorescence of single cells or particles in a stream.

In the next data set the test system is HIV-1 BaL. In kind it is cell-based. The conditions noted are these: acute infection, primary human CD4+ T cells; read-out: half maximal inhibitory concentration (IC50) for infection by HIV-1 BaL.
Text: as §3

For a further data set, the system named is HeLa and HEK293 cells. The experiment in a line: Viability of cell lines by timed flow cytometry counting. The following applies: 30 mM, 72 hrs. In kind it is cell-based. Here is the method: FIGS. 2L-2O illustrate the different efficiency of V2 tyrosine sulfation in recombinant gp120 produced in epithelial cell lines versus virion-associated gp120 produced by primary CD4^+ T cells. (L) Detection of sulfated tyrosines by Western blot in recombinant gp120 produced in CHO cells. (M) Lack of adverse effects of sodium chlorate treatment or TPST2 overexpression on the viability of HeLa and HEK293 cells. The cell lines were treated with 30 mM sodium chlorate (NaClO3) or transfected with a plasmid vector expressing TPST2 and cultured for 72 hrs. Cell viability was measured by quantitative counting using timed flow cytometry on a FACSCanto II and is expressed as percent viable cell recovery. (N) Side-by-side comparison of the extent of tyrosine sulfation detected by Western blot in a reference sulfated mAb (412d), in virion-associated gp120 produced by infected primary human CD4^+ T cells (V-gp120), and in recombinant gp120 produced in HEK293 cells (R-gp120). Identical amounts of mAb 412d and purified gp120 were loaded on the gels. For V-gp120, the protein was immunoprecipitated directly from the infectious viral stocks. The antibodies used for Western blots and the methods used for relative quantification were the same as in (L). […]

For another data set, the system named is HIV-1 BaL ΔV2 gp160. The experiment in a line: Fusion neutralization of HIV-1 BaL ΔV2 with or without NaClO3 pre-treatment. The format is cell-based. The following applies: 30 mM, 72 hrs pre-treatment.
The test system of data set [4] is gp120 tyrosine sulfation (sulfotransferases). The experiment in a line: Western blot of tyrosine sulfation in recombinant gp120 produced in CHO cells. The format is cell-based. The conditions noted are these: 30 mM; recombinant gp120 BaL.
The next data set deals with T1, recombinant soluble CD4 (Homo sapiens, UniProt P01730).
T1 construct: recombinant soluble CD4 was flown over the chip
Nature of the data set: Surface plasmon resonance, soluble CD4 binding to immobilized biotinylated peptide. The following applies: koff-KD distribution model. The protocol:
FIG. 12 is a graph illustrating binding of recombinant soluble CD4 to peptide pV2α. The biotinylated peptide was bound to a neutravidin-coated CM3 sensor chip and recombinant soluble CD4 was flown over the chip in the liquid phase. Experimental binding traces were recorded for sCD4 (at the concentration of […]) binding to 235 RU pV2α at a flow rate of […]; best fit traces (red lines) were derived from modeling with koff−KD distribution. (Lower graphs) Residuals of the fit, which has an rmsd of 0.47 RU shown twice on different scales to facilitate their critical inspection.
Binding of recombinant soluble CD4 to peptide pV2α was evaluated by surface plasmon resonance (FIG. 12). The biotinylated peptide was bound to a neutravidin-coated sensor chip and recombinant soluble CD4 was flown over the chip in the liquid phase. Experimental binding traces were recorded for sCD4 (at the concentration of […]) binding to 235 RU pV2α at a flow rate of […]; best fit traces (red lines) were derived from modeling with koff−KD distribution.

Data set [5] concerns the target T2, recombinant soluble gp120 (isolate YU2) (Human immunodeficiency virus type 1 group M subtype B, UniProt P35961).
T2 construct: recombinant soluble gp120 (isolate YU2)
The experiment in a line: Surface plasmon resonance, gp120 binding to immobilized biotinylated peptide. Also noted: species or system HIV-1. The source says:
Binding of gp120 to immobilized peptide pV2α as assessed by surface plasmon resonance analysis (FIG. 3F). The biotinylated peptide was bound to a neutravidin-coated CM3 sensor chip and recombinant soluble gp120 (isolate YU2) was flown over the chip in the liquid phase. […] Residuals of the fit, which has an RMSD of 0.62 RU shown twice on different scales to facilitate their critical inspection (lower two graphs).

Take “pCCR5-Tys: tyrosine-sulfated peptide derived from the CCR5 N-terminus (DYQVSSPIYDINYYTSE; also: tyrosine-sulfated, sites not given here)”: the “inhibition of gp120 binding to mAb F105” value in [1] is on record as “lack of inhibition”. Besides, in data set [2], the “inhibition of virion capture by mAb 412d” value is “specifically inhibited”. The “inhibition of binding of surface-bound mAb 412d to CD4-activated gp120” value in data set [3] was “blocked”.
Turning to `CC[C@H](C)[C@H](NC(=O)[C@H](CC(=O)O)NC(=O)[C@H](CC(C)C)NC(=O)[C@H](CCC(=O)O)NC(=O)[C@H](Cc1ccc(OS(=O)(=O)O)cc1)NC(=O)[C@H](Cc1ccccc1)NC(=O)[C@H](CC(C)C)NC(=O)[C@H](C)NC(=O)[C@H](Cc1ccc(OS(=O)(=O)O)cc1)NC(=O)[C@H](CCC(=O)O)NC(=O)[C@H](CCCCN)NC(=O)[C@H](CCC(N)=O)NC(=O)[C@@H](NC(=O)[C@@H](N)CCCCN)C(C)C)C(=O)N[C@H](C(=O)N1CCC[C@H]1C(=O)N[C@H](C(=O)N[C@@H](CC(=O)O)C(=O)O)[C@@H](C)CC)C(C)C` [pV2α-Tys] (H-KVQKE[sY]ALF[sY]ELDIVPID-OH), the “effect on cell viability” value in the data set on primary CD4+ T cells is “no negative effects”. Also, the IC50 in the data set on HIV-1 BaL worked out at 15 µM.
For the compound `[Na+].[O-][Cl+2]([O-])[O-]` [sodium chlorate], the “effect on cell viability” value in the data set with HeLa and HEK293 cells is “no negative effects”; in the data set on HeLa and HEK293 cells (listed as NaClO3) it was “no adverse effects”. For the same compound, the “effect on neutralization sensitivity of HIV-1 BaL ΔV2” value in the data set with HIV-1 BaL ΔV2 gp160 is on record as “nor did it alter”. Besides, the “effect on gp120 tyrosine sulfation” value in [4] is given as “totally abrogated gp120 sulfation”.
Usually koff stands for the rate constant with which the complex falls apart. One may read the Kd as the equilibrium constant for the complex coming apart. In the case of `CC[C@H](C)[C@H](NC(=O)[C@H](CC(=O)O)NC(=O)[C@H](CC(C)C)NC(=O)[C@H](CCC(=O)O)NC(=O)[C@H](Cc1ccc(O)cc1)NC(=O)[C@H](Cc1ccccc1)NC(=O)[C@H](CC(C)C)NC(=O)[C@H](C)NC(=O)[C@H](Cc1ccc(O)cc1)NC(=O)[C@H](CCC(=O)O)NC(=O)[C@H](CCCCN)NC(=O)[C@H](CCC(N)=O)NC(=O)[C@@H](NC(=O)[C@@H](N)CCCCN)C(C)C)C(=O)N[C@H](C(=O)N1CCC[C@H]1C(=O)N[C@H](C(=O)N[C@@H](CC(=O)O)C(=O)O)[C@@H](C)CC)C(C)C` [pV2α] (H-KVQKEYALFYELDIVPID-OH), the “effect on cell viability” value with primary CD4+ T cells was “no negative effects”. In addition, the koff on recombinant soluble CD4 was 0.013 s⁻¹; in data set [5] (read-out: koff of gp120 binding to immobilized peptide) it was 6.4e-05 s⁻¹. The Kd in [5] stood at 0.0009 µM.

The record behind these values is patent US9775895B2, “HIV therapeutics and methods of making and using same” (priority 2012, dated 2017).
